Experiments:
Type in all cases: in vivo
[1] = Inhibition of tetrabenazine induced depression of exploratory behavior in mice; conditions: for Number Responded/Number Treated: intraperitoneally or orally, 1 h before tetrabenazine 30 mg/kg; for ED50: Mus musculus, calculated by method of Finney, dose column in mg/kg, read-out: ED50 (95% C.L.)
Procedure: Varying doses of the test compounds are administered intraperitoneally or orally to 5 mice one hour before the administration of tetrabenazine hexamate at an intraperitoneal dose of 30 mg/kg which is known to depress markedly the exploratory behavior of normal mice. Thirty minutes later the mice are tested for their exploratoy behavior. Individual mice are placed in the center of a horizontal disc. Inhibition of the depression induced by tetrabenazine is considered present if the mice perform one or more of the following actions within 10 seconds after being placed on the disc:
(1) Animals move to the edge of the disc and pear over the side.
(2) Animals move 180° in place.
(3) Animals display a head movement of 90° immediately followed by a head movement in the opposite direction of at least 45°.
Administration of the test compounds to additional groups of 5 mice is repeated, the numbers of individual animals showing an anti-depressant response (normal exploratory behavior) is recorded and the results are analyzed by the following scheme (statistically standardized; significant P = less than 0.05).
The results from several dose levels (acceptance in at least two sequential test procedures) are then used to establish the Range of Active Doses.

[2] = Prevention of reserpine-induced hypothermia in rats; conditions: for ED50: Rattus norvegicus, oral, dose column in mg/kg, read-out: ED50 (95% C.L.)
Procedure: Groups of 5 rats were treated orally with graded doses of the test compounds. One hour later the animals were treated with reserpine (solubilized in propylene glycol and citric acid) at a dose of 5 mg/kg intraperitoneally. Rectal temperatures were measured using a YSI Telethermometer. Temperatures were recorded just prior to treatment, one hour later just prior to reserpine administration and at hourly intervals following reserpine administration for 5 hours. […]

[3] = Enhancement of yohimbine lethality in mice; conditions: 25 mg/kg intraperitoneal, yohimbine 34 mg/kg
Procedure: The test compounds were administered intraperitoneally, at various dose levels, to groups of 10 mice. One hour later all mice received yohimbine at a dose (34 mg/kg) estimated to have a lethal effect in 4% of the mice. Deaths were recorded 18 to 24 hours later.

[4] = 5 mg/kg oral, 2 hours after reserpine
[5] = 5 mg/kg oral, 3 hours after reserpine
[6] = 5 mg/kg oral, 4 hours after reserpine
[7] = 5 mg/kg oral, 5 hours after reserpine
[8] = 10 mg/kg oral, 2 hours after reserpine
[9] = 10 mg/kg oral, 3 hours after reserpine
[10] = 10 mg/kg oral, 4 hours after reserpine
[11] = 10 mg/kg oral, 5 hours after reserpine
[12] = 20 mg/kg oral, 2 hours after reserpine
[13] = 20 mg/kg oral, 3 hours after reserpine
[14] = 20 mg/kg oral, 4 hours after reserpine
[15] = 20 mg/kg oral, 5 hours after reserpine

| Compound | Number Responded/Number Treated ([1]; 3.13 mg/kg) | Number Responded/Number Treated ([1]; 6.25 mg/kg) | Number Responded/Number Treated ([1]; 12.5 mg/kg) | Number Responded/Number Treated ([1]; 25.0 mg/kg) | ED50 [1] [mg/kg] | Percent of Animals Showing > Two Standard Deviations in Rectal Temperature Over Control Means [2, 4] [%] | Percent of Animals Showing > Two Standard Deviations in Rectal Temperature Over Control Means [2, 5] [%] | Percent of Animals Showing > Two Standard Deviations in Rectal Temperature Over Control Means [2, 6] [%] | Percent of Animals Showing > Two Standard Deviations in Rectal Temperature Over Control Means [2, 7] [%] | Percent of Animals Showing > Two Standard Deviations in Rectal Temperature Over Control Means [2, 8] [%] | Percent of Animals Showing > Two Standard Deviations in Rectal Temperature Over Control Means [2, 9] [%] | Percent of Animals Showing > Two Standard Deviations in Rectal Temperature Over Control Means [2, 10] [%] | Percent of Animals Showing > Two Standard Deviations in Rectal Temperature Over Control Means [2, 11] [%] | Percent of Animals Showing > Two Standard Deviations in Rectal Temperature Over Control Means [2, 12] [%] | Percent of Animals Showing > Two Standard Deviations in Rectal Temperature Over Control Means [2, 13] [%] | Percent of Animals Showing > Two Standard Deviations in Rectal Temperature Over Control Means [2, 14] [%] | Percent of Animals Showing > Two Standard Deviations in Rectal Temperature Over Control Means [2, 15] [%] | ED50 ([2]; 2 hours after reserpine) [mg/kg] | ED50 ([2]; 3 hours after reserpine) [mg/kg] | ED50 ([2]; 4 hours after reserpine) [mg/kg] | further results |
| --- | --- | --- | --- | --- | --- | --- | --- | --- | --- | --- | --- | --- | --- | --- | --- | --- | --- | --- | --- | --- | --- |
| CCN1c2ccccc2N=C(N2CCN(C)CC2)c2cscc21 [4-Ethyl-10-(4-methyl-1-piperazinyl)-4H-thieno[3,4-b][1,5]benzodiazepine] | 3/15 | 10/30 | 9/25 | 9/20 | ~37 | 0 | 0 | 0 | 0 | 60 | 100 | 60 | 20 | 80 | 80 | 100 | 60 | 11.6 | 8.7 | 9.7 | ED50 ([2]; 5 hours after reserpine): 16.9 mg/kg; Number Dead/Number Treated ([3]; 18 hours): 7/10; Number Dead/Number Treated ([3]; 24 hours): 8/10 |
| CN1c2ccccc2N=C(N2CCNCC2)c2cscc21 [4-Methyl-10-(1-piperazinyl)-4H-thieno[3,4-b][1,5]benzodiazepine] | 10/30 | 9/20 | 11/20 | 10/20 | 13 |  |  |  |  |  |  |  |  |  |  |  |  |  |  |  | Number Responded/Number Treated ([1]; 1.56 mg/kg): 5/30 |
| CN1c2ccccc2N=C(N2CCN(CCO)CC2)c2cscc21 [4-(4-Methyl-4H-thieno[3,4-b][1,5]-benzodiazepin-10-yl)-1-piperazineethanol] | 10/30 | 9/20 | 11/20 | 10/20 | 13 | 0 | 0 | 0 | 0 | 80 | 80 | 80 | 80 | 100 | 80 | 80 | 40 | 9.1 | 10.6 | 10.6 | Number Responded/Number Treated ([1]; 1.56 mg/kg): 5/30; ED50 ([2]; 5 hours after reserpine): 14.6 mg/kg |

— patent publication US4087421A, “Substituted benzodiazepines and method of use” (American Cyanamid Company, priority 1977, dated 1978)
